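Values below derive from 48-hour exposures of cells grown in 96-well plates, with endpoints linearly interpolated between the two concentrations bracketing the appropriate inhibition level. GI50 = concentration required for 50% inhibition of growth. At the TGI there is no net growth.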
Assays:
Assay in all cases: NCI anticancer screen, dose series, 48 h
786-0 renal = test system: 786-0 renal
A498 renal = test system: A498 renal
A549 NSCLC = test system: A549 NSCLC
ACHN renal = test system: ACHN renal
BT-549 breast = test system: BT-549 breast
CAKI-1 renal = test system: CAKI-1 renal
CCRF-CEM leukemia = test system: CCRF-CEM leukemia
COLO 205 colon = test system: COLO 205 colon
DU-145 prostate = test system: DU-145 prostate
EKVX NSCLC = test system: EKVX NSCLC
HCT-116 colon = test system: HCT-116 colon
HCT-15 colon = test system: HCT-15 colon
HL-60(TB) leukemia = test system: HL-60(TB) leukemia
HOP-62 NSCLC = test system: HOP-62 NSCLC
HOP-92 NSCLC = test system: HOP-92 NSCLC
HS 578T breast = test system: HS 578T breast
HT29 colon = test system: HT29 colon
IGROV1 ovarian = test system: IGROV1 ovarian
K-562 leukemia = test system: K-562 leukemia
KM12 colon = test system: KM12 colon
LOX IMVI melanoma = test system: LOX IMVI melanoma
M14 melanoma = test system: M14 melanoma
MALME-3M melanoma = test system: MALME-3M melanoma
MCF7 breast = test system: MCF7 breast
MDA-MB-231 breast = test system: MDA-MB-231 breast
MDA-MB-435 = test system: MDA-MB-435
MDA-N = test system: MDA-N
MOLT-4 leukemia = test system: MOLT-4 leukemia
NCI-H23 lung = test system: NCI-H23 lung
NCI-H460 lung = test system: NCI-H460 lung
NCI-H522 lung = test system: NCI-H522 lung
NCI/ADR-RES ovarian = test system: NCI/ADR-RES ovarian
OVCAR-3 ovarian = test system: OVCAR-3 ovarian
OVCAR-4 ovarian = test system: OVCAR-4 ovarian
OVCAR-5 ovarian = test system: OVCAR-5 ovarian
OVCAR-8 ovarian = test system: OVCAR-8 ovarian
PC-3 prostate = test system: PC-3 prostate
RPMI-8226 leukemia = test system: RPMI-8226 leukemia
RXF 393 renal = test system: RXF 393 renal
SF-268 CNS = test system: SF-268 CNS
SF-295 CNS = test system: SF-295 CNS
SF-539 CNS = test system: SF-539 CNS
SK-MEL-2 melanoma = test system: SK-MEL-2 melanoma
SK-MEL-28 melanoma = test system: SK-MEL-28 melanoma
SK-MEL-5 melanoma = test system: SK-MEL-5 melanoma
SK-OV-3 ovarian = test system: SK-OV-3 ovarian
SN12C renal = test system: SN12C renal
SNB-19 CNS = test system: SNB-19 CNS
SNB-75 CNS = test system: SNB-75 CNS
SR leukemia = test system: SR leukemia
SW-620 colon = test system: SW-620 colon
T-47D breast = test system: T-47D breast
TK-10 renal = test system: TK-10 renal
U251 CNS = test system: U251 CNS
UACC-257 melanoma = test system: UACC-257 melanoma
UACC-62 melanoma = test system: UACC-62 melanoma
UO-31 renal = test system: UO-31 renal
NCI-H226 lung = test system: NCI-H226 lung

Work on `C/C(=N\[N+](C)(C)C)c1ccc(C)c(C)c1` yielded a GI50 (786-0 renal) greater than 100 µM, a TGI (786-0 renal) greater than 100 µM and a TGI (A498 renal) greater than 100 µM. The TGI (A549 NSCLC) was greater than 100 µM, the GI50 (ACHN renal) was greater than 100 µM and the TGI (ACHN renal) was greater than 100 µM. The TGI (BT-549 breast) was greater than 100 µM, the GI50 (CAKI-1 renal) was greater than 100 µM and the TGI (CAKI-1 renal) was greater than 100 µM. It also gave a TGI (CCRF-CEM leukemia) greater than 100 µM, a TGI (COLO 205 colon) of 38.3 µM and a TGI (DU-145 prostate) greater than 100 µM. The TGI (EKVX NSCLC) was greater than 100 µM, the TGI (HCT-116 colon) was greater than 100 µM and the GI50 (HCT-15 colon) was greater than 100 µM. It also gave a TGI (HCT-15 colon) greater than 100 µM, a TGI (HL-60(TB) leukemia) greater than 100 µM and a GI50 (HOP-62 NSCLC) greater than 100 µM. The TGI (HOP-62 NSCLC) was greater than 100 µM, the GI50 (HOP-92 NSCLC) was greater than 100 µM and the TGI (HOP-92 NSCLC) was greater than 100 µM. It also gave a GI50 (HS 578T breast) greater than 100 µM, a TGI (HS 578T breast) greater than 100 µM and a TGI (HT29 colon) greater than 100 µM. It also gave a TGI (IGROV1 ovarian) greater than 100 µM, a TGI (K-562 leukemia) greater than 100 µM and a TGI (KM12 colon) greater than 100 µM. For the same compound, the GI50 (LOX IMVI melanoma) was greater than 100 µM, the TGI (LOX IMVI melanoma) was greater than 100 µM and the GI50 (M14 melanoma) was greater than 100 µM. The TGI (M14 melanoma) was greater than 100 µM, the GI50 (MALME-3M melanoma) was greater than 100 µM and the TGI (MALME-3M melanoma) was greater than 100 µM. The GI50 (MCF7 breast) was greater than 100 µM, the TGI (MCF7 breast) was greater than 100 µM and the GI50 (MDA-MB-231 breast) was greater than 100 µM. For the same compound, the TGI (MDA-MB-231 breast) was greater than 100 µM, the TGI (MDA-MB-435) was greater than 100 µM and the TGI (MDA-N) was greater than 100 µM. For the same compound, the GI50 (MOLT-4 leukemia) was greater than 100 µM, the TGI (MOLT-4 leukemia) was greater than 100 µM and the TGI (NCI-H23 lung) was greater than 100 µM. It also gave a TGI (NCI-H460 lung) greater than 100 µM, a TGI (NCI-H522 lung) greater than 100 µM and a GI50 (NCI/ADR-RES ovarian) greater than 100 µM. The TGI (NCI/ADR-RES ovarian) was greater than 100 µM, the TGI (OVCAR-3 ovarian) was greater than 100 µM and the TGI (OVCAR-4 ovarian) was greater than 100 µM. For the same compound, the TGI (OVCAR-5 ovarian) was greater than 100 µM, the TGI (OVCAR-8 ovarian) was greater than 100 µM and the TGI (PC-3 prostate) was greater than 100 µM. The TGI (RPMI-8226 leukemia) was greater than 100 µM, the TGI (RXF 393 renal) was greater than 100 µM and the GI50 (SF-268 CNS) was greater than 100 µM. It also gave a TGI (SF-268 CNS) greater than 100 µM, a TGI (SF-295 CNS) greater than 100 µM and a GI50 (SF-539 CNS) greater than 100 µM. It also gave a TGI (SF-539 CNS) greater than 100 µM, a TGI (SK-MEL-2 melanoma) greater than 100 µM and a GI50 (SK-MEL-28 melanoma) greater than 100 µM. For the same compound, the TGI (SK-MEL-28 melanoma) was greater than 100 µM, the TGI (SK-MEL-5 melanoma) was greater than 100 µM and the TGI (SK-OV-3 ovarian) was greater than 100 µM. For the same compound, the TGI (SN12C renal) was 69.7 µM, the TGI (SNB-19 CNS) was greater than 100 µM and the TGI (SNB-75 CNS) was greater than 100 µM. For the same compound, the TGI (SR leukemia) was greater than 100 µM, the TGI (SW-620 colon) was greater than 100 µM and the TGI (T-47D breast) was greater than 100 µM. For the same compound, the TGI (TK-10 renal) was greater than 100 µM, the TGI (U251 CNS) was greater than 100 µM and the TGI (UACC-257 melanoma) was 26.7 µM. The TGI (UACC-62 melanoma) was greater than 100 µM and the TGI (UO-31 renal) was greater than 100 µM.
`Cn1c(=O)c2[nH]c(CSCc3ccccc3)nc2n(C)c1=O` was tested, and the TGI (786-0 renal) was greater than 100 µM, the TGI (A498 renal) was greater than 100 µM and the TGI (A549 NSCLC) was greater than 100 µM. The TGI (ACHN renal) was greater than 100 µM, the TGI (BT-549 breast) was greater than 100 µM and the TGI (CAKI-1 renal) was greater than 100 µM. For the same compound, the TGI (COLO 205 colon) was greater than 100 µM, the TGI (DU-145 prostate) was greater than 100 µM and the TGI (EKVX NSCLC) was greater than 100 µM. For the same compound, the TGI (HCT-116 colon) was greater than 100 µM, the TGI (HCT-15 colon) was greater than 100 µM and the TGI (HOP-62 NSCLC) was greater than 100 µM. For the same compound, the TGI (HOP-92 NSCLC) was greater than 100 µM, the TGI (HS 578T breast) was greater than 100 µM and the TGI (HT29 colon) was greater than 100 µM. The TGI (IGROV1 ovarian) was greater than 100 µM, the TGI (K-562 leukemia) was greater than 100 µM and the TGI (KM12 colon) was greater than 100 µM. For the same compound, the TGI (LOX IMVI melanoma) was greater than 100 µM, the TGI (M14 melanoma) was greater than 100 µM and the TGI (MALME-3M melanoma) was greater than 100 µM. For the same compound, the TGI (MCF7 breast) was greater than 100 µM, the TGI (MDA-MB-231 breast) was greater than 100 µM and the TGI (MDA-MB-435) was greater than 100 µM. For the same compound, the TGI (MDA-N) was greater than 100 µM, the TGI (MOLT-4 leukemia) was greater than 100 µM and the TGI (NCI-H226 lung) was greater than 100 µM. The TGI (NCI-H23 lung) was greater than 100 µM, the TGI (NCI-H460 lung) was greater than 100 µM and the TGI (NCI-H522 lung) was greater than 100 µM. It also gave a TGI (NCI/ADR-RES ovarian) greater than 100 µM, a TGI (OVCAR-3 ovarian) greater than 100 µM and a TGI (OVCAR-4 ovarian) greater than 100 µM. For the same compound, the TGI (OVCAR-5 ovarian) was greater than 100 µM, the TGI (OVCAR-8 ovarian) was greater than 100 µM and the TGI (PC-3 prostate) was greater than 100 µM. The TGI (RPMI-8226 leukemia) was greater than 100 µM, the TGI (RXF 393 renal) was greater than 100 µM and the TGI (SF-268 CNS) was greater than 100 µM. The TGI (SF-295 CNS) was greater than 100 µM, the TGI (SF-539 CNS) was greater than 100 µM and the TGI (SK-MEL-2 melanoma) was greater than 100 µM. It also gave a TGI (SK-MEL-28 melanoma) greater than 100 µM, a TGI (SK-MEL-5 melanoma) greater than 100 µM and a TGI (SK-OV-3 ovarian) greater than 100 µM. The TGI (SN12C renal) was greater than 100 µM, the TGI (SNB-19 CNS) was greater than 100 µM and the TGI (SNB-75 CNS) was greater than 100 µM. For the same compound, the TGI (SR leukemia) was greater than 100 µM, the TGI (T-47D breast) was greater than 100 µM and the TGI (TK-10 renal) was greater than 100 µM. It also gave a TGI (U251 CNS) greater than 100 µM, a TGI (UACC-257 melanoma) greater than 100 µM and a TGI (UACC-62 melanoma) greater than 100 µM. The TGI (UO-31 renal) was greater than 100 µM.

Source: PubChem BioAssay (NCI)
